From patent publication US12428370B2, “Haloallylamine dual amine oxidase inhibitors” (Syntara Limited, priority 2020, dated 2025)
Counter-ions that a name gives are not always drawn.

Experiments:
[1] = test system: mdx mice (C57BL/10ScSn-Dmdmdx/J); assay: Mouse model of Duchenne muscular dystrophy, PXS-5131; assay type: in vivo; conditions: 6 mg/kg/day oral, 4 weeks, 3 months old mdx mice
Experimental: mdx mice (C57BL/10ScSn-Dmdmdx/J) were obtained from Jackson Laboratories, Maine, US. […] Untreated, age-matched animals were used as controls. The drug was administered using small palatable gelatin pellets prepared with 10% gelatin in 20% sucralose plus food flavoring (Zhang L. Protoc. Exch. 2011, 236) Animals were pre-conditioned to recognize and eat the gelatins with a three-day routine involving overnight fasting followed by exposure of each single animal to the gelatin without the active principle, in the absence of other food. Palatability was further improved by dipping the pellets in corn oil containing trace amounts of almond oil and then breading them with pulverized food pellet.
Muscle function in vivo was assessed for the gastrocnemius muscle, as described by Blaauw B. et al., Hum. Mol. Genet. 2008, 17, 3686-3696. Mice were anesthetized, and electrodes were placed on either side of the sciatic nerve, while the common peroneal nerve was cut. Muscle torque production was measured using a lever system (Aurora Scientific 305B). A lever arm of 2.1 mm was used for all groups, as no major differences in body weight between various groups was observed. Eccentric contractions were performed by moving the foot backward at a velocity of 40 mm/s while the gastrocnemius was stimulated with a frequency sufficient to induce full tetanic fusion (100 Hz). Contractions were repeated once every 20 s to avoid inducing fatigue (see FIG. 6).
After the force measurements described above, animals were sacrificed by cervical dislocation and the skeletal muscle and the heart (minus the atria) were collected, flash-frozen in isopentane pre-cooled with liquid nitrogen and stored at −80° C. 12 μm sections from a limb muscle (tibialis anterior) were prepared with a cryotome; multiple serial slides were prepared, containing sections from at least three different levels. The same procedure was used to prepare heart transverse sections.
The amount of the neutrophil and macrophage infiltration was determined in serial sections of skeletal muscle prepared as described above, which were fixed and then stained via immunofluorescence with an anti Ly6G and an anti F4/80 antibody (AbCam, ab25377 and ab6640, for neutrophils and macrophages, respectively). The amount of infiltrate was assessed as percentage of fluorophore-positive pixel over the total area of the sections, using Image-J software (FIGS. 7A and B).
The amount of reactive oxygen species (ROS) present in the skeletal muscle tissue sections was assessed using dihydroethidium (DHE, Sigma) as a fluorescent probe in freshly cut tissue sections as described by Menazza et al., et al., Hum. Mol. Genet. 2010, 19, 4207-4215. In the presence of ROS, DHE is oxidized forming ethidium, which then can bind to nuclear DNA and emit red fluorescence. The amount of the red fluorescence was then measured from at least 20 random fields per each section using the Metafluor software (Leica), and data were averaged per field (FIG. 7C).
The percentage of fibrotic tissue in skeletal muscle was determined by picrosirius red staining. […] Whole images of at least three sections per muscle sample were then acquired with a bright field microscope and then analyzed with Image-J software, in order to measure the percentage of fibrotic (red) areas with respect to the total surface (FIG. 7D).

[2] = molecular target: T1, Muscle and Heart Tissue MAO-B (Mus musculus, UniProt Q8BW75); assay: Mouse muscle and heart tissue MAO-B activity after oral administration; assay type: in vivo; conditions: for MAO-B activity in heart and muscle tissue: C57BL/6J mice, single oral dose, FIG. 8
T1 construct: Skeletal muscle was pulverized in liquid nitrogen and then suspended in ice-cold HEPES buffered media; from tissue; host or cells: skeletal muscle and heart of C57BL/6J and mdx mice (mitochondrial extract)
T1 sequence (Q8BW75 1-520): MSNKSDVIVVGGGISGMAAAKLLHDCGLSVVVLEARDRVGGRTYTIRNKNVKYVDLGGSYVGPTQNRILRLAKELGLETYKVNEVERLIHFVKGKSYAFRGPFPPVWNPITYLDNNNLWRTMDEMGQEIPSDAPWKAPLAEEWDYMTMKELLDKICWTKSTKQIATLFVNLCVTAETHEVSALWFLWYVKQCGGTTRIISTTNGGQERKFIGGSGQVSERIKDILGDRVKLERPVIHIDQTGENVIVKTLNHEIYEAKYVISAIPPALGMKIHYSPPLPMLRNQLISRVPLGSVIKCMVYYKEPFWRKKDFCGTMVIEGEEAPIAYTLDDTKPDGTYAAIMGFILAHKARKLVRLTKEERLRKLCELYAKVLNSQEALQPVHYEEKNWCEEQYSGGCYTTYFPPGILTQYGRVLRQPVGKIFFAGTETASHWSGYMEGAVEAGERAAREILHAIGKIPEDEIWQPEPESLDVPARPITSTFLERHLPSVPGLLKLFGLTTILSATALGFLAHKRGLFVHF
Experimental: Mice were orally administered the compound under study and sacrificed at various time points and abdominal fat, muscle and heart tissue collected.
Skeletal muscle was pulverized in liquid nitrogen and then suspended in ice-cold HEPES buffered media (20 mM HEPES, 0.8% w/v free-fatty acid bovine serum albumin (BSA), 75 mM sucrose, 10 mM EDTA, 215 mM D-mannitol, pH 7.4). Homogenized and then centrifuged at 2,500 rpm for 10 minutes at 4° C. Supernatant transferred and centrifuged at 10,000 rpm for 8 minutes. Supernatant discarded and the resultant pellet containing the mitochondrial extract re-suspended in 0.1 M sodium phosphate buffer solution (1:3 ratio).
Heart muscle was washed with PBS solution three times over ice. Homogenate and extract was then prepared as described for the skeletal muscle.
MAO-B activity was determined by using a specific MAO-A inhibitor (e.g. clorgyline) and an SSAO/VAP-1 inhibitor (e.g. semicarbazide) to establish the high signal. Low signal was established as for the adipose tissue assay (EXAMPLE 13).
Activity of the treated samples was analyzed using the fluorometric method described in EXAMPLE 9 for SSAO/VAP-1 activity, EXAMPLE 10 for MAO-B and EXAMPLE 11 for MAO-A activity (FIG. 8 and FIG. 9).

[3] = Metabolic stability profile (liver microsomes, hepatocytes, plasma, whole blood, simulated gastric fluid, metabolite identification); assay type: in vitro ADME; conditions: all assays: liver microsomes, plasma (human, rat, dog), simulated gastric fluid pH 1.2, metabolite identification
Experimental: Assessment of the metabolic stability profile of Compound 1 using standardized commercially available methods (available through contract research organizations such as Eurofins Panlabs Inc, (https://www.eurofinsdiscoveryservices.com/services/in-vitro-assays/) or Evotec SE, (https://www.evotec.com/en/execute/integrated-pre-clinical-development/adme)).
The potential for metabolism in vivo was evaluated in vitro using the following assays:
Liver microsomal stability (human, rat, dog; in presence of NADPH)
Hepatocyte stability (human, rat, dog)
Plasma stability (human, rat, dog)
Whole blood stability (human, rat)
Simulated gastric fluid stability (10 μM test article, pH 1.2)
Metabolite identification in human hepatocytes

SMILES	neutrophil influx in the tibialis anterior muscle ([1]; p<0.0001, FIG. 7A)	macrophage influx in the tibialis anterior muscle ([1]; p<0.0001, FIG. 7B)	reactive oxygen species in the tibialis anterior muscle ([1]; p<0.0001, FIG. 7C)	fibrosis (picrosirius red staining) in the tibialis anterior muscle ([1]; p<0.0001, FIG. 7D)	loss of force caused by eccentric contractions in the gastrocnemius muscle ([1]; p<0.05, FIG. 6)	MAO-B activity in heart and muscle tissue ([2]; 24-hour time point)	MAO-B activity in heart and muscle tissue ([2]; various doses, 4 hours after administration)	muscle MAO-B activity ([2]; mdx mice (C57BL/10ScSn-Dmdmdx/J), oral, FIG. 10)	metabolic stability [3]
NC/C(=C\F)C1Cc2ccccc2O1 (single isomer, unassigned; (-)) [PXS-5131, (−)-(E)-2-(2,3-Dihydrobenzofuran-2-Yl)-3-Fluoroprop-2-En-1-Amine Hydrochloride]	significantly reduces	significantly reduces	significantly reduces	significantly reduces	helps protect against the loss of force				
N#Cc1ccc(OC/C(=C/F)CN)cc1 [Compound 1, (E)-4-((2-(aminomethyl)-3-fluoroallyl)oxy) benzonitrile]						inhibition of the enzyme activity is still evident	dose-related reduction	completely inhibits	favourable metabolic stability
